Experimental data from patent publication US12636323B2, “Use of Clostridium ghonii combined with tumor angiogenesis inhibitor” (priority 2021, dated 2026).

Tests used:
CT26 tumor cells = assay: Antitumor effect of Clostridium ghonii spores combined with different doses of apatinib (AITAN) in CT26 mouse model; type: in vivo, BALB/c mice; details: for Tumor inhibition rate (row head: Anti-bacterial rate): calculated from tumor weight; for Tumor weight: n=7; for Cure rate: tumors completely eliminated at end of experiment
Experimental: BALB/c mice were subcutaneously inoculated with CT26 tumor cells to establish a subcutaneous tumor model for colon cancer. 0.2 mL of a cell suspension with a concentration of 7.5×10^6 cells/mL (acceptable range: 6.75×10^6 cells/mL-8.25×10^6 cells/mL) was extracted with a 1-mL disposable sterile syringe and slowly subcutaneously injected into axillae of right forelimbs of mice (pre-sterilized with 75% alcohol). After injection, needle eyes were gently pressed with dry cotton balls.
Tumor measurement: a maximum long diameter (L) and a maximum transverse diameter (W) of a tumor (including a thickness of a mouse skin) were measured with a vernier caliper, and a tumor volume was calculated according to a formula of
Tumor weight: a tumor tissue was dissected out and weighed and tumor weight was recorded.
Tumor inhibition rate (IRTW%)=(average tumor weight of control group-average tumor weight of experimental group)/average tumor weight of control group×100%.
(§1) According to a random principle, the conforming mice (a tumor volume of 0.31-0.41 cm^3) were divided into 8 groups by lottery: control group, spore group, high-dose apatinib (AITAN) group, medium-dose apatinib (AITAN) group, low-dose apatinib (AITAN) group, Clostridium ghonii combined low-dose apatinib (AITAN) group, Clostridium ghonii combined medium-dose apatinib (AITAN) group, and Clostridium ghonii combined high-dose apatinib (AITAN) group.
(§2) Control group: the mice were intratumorally administrated with a same volume of a 0.9% sodium chloride injection; • spore group: the mice were intratumorally administrated at a dose of 1×10^7 cfu/tumor/time twice; • High-dose apatinib (AITAN) group: the mice were gavaged at a dose of 180 mg/kg/d once every day for a total of 7 times; • Medium-dose apatinib (AITAN) group: the mice were gavaged at a dose of 120 mg/kg/d once every day for a total of 7 times; • Low-dose apatinib (AITAN) group: the mice were gavaged at a dose of 60 mg/kg/d once every day for a total of 7 times; and
(§3) Clostridium ghonii combined apatinib (AITAN) groups: mice were first intratumorally administrated with apatinib (AITAN) once every day for 3 days and then Clostridium ghonii spores at a dose of 1×10^7 cfu/tumor/time once every other day for a total of two times. The dose of the apatinib (AITAN) in the combined high, medium and low-dose apatinib (AITAN) groups was the same as that in the high, medium and low-dose apatinib (AITAN) groups.

[1] = Death and net body weight of tumor-bearing mice in Example 3; type: in vivo, BALB/c mice; details: mean ± SD, n=7
Experimental: Clinical observation: during an administration period, animal behaviors, death or near-death, etc. were observed using the naked eyes once every morning and afternoon.
Body weight: during the administration period, body weight was measured on the day of the tumor measurement from the day of treatment.
as §1, §2, §3

[2] = medium-dose apatinib 120 mg/kg/d

N#CC1(c2ccc(NC(=O)c3cccnc3NCc3ccncc3)cc2)CCCC1 [apatinib (AITAN), apatinib]
Tumor volume (CT26 tumor cells; D-1, Table 2 (low-dose apatinib)): 1049.42 ± 166.37 mm^3
Tumor volume (CT26 tumor cells; D-1, upper part of Table 2, low-dose apatinib 60 mg/kg/d): 931.50 ± 97.91 mm
Tumor volume (CT26 tumor cells; D-4, Table 2 (low-dose apatinib)): 1499.45 ± 303.10 mm^3
Tumor volume (CT26 tumor cells; D-4, upper part of Table 2, low-dose apatinib 60 mg/kg/d): 1489.82 ± 232.84 mm
Tumor volume (CT26 tumor cells; D-8, Table 2 (low-dose apatinib)): 2442.80 ± 882.95 mm^3
Tumor volume (CT26 tumor cells; D-8, upper part of Table 2, low-dose apatinib 60 mg/kg/d): 2275.35 ± 348.84 mm
Tumor inhibition rate (row head: Anti-bacterial rate) (CT26 tumor cells; high-dose apatinib 180 mg/kg/d): 21.68%
Tumor inhibition rate (row head: Anti-bacterial rate) (CT26 tumor cells; low-dose apatinib 60 mg/kg/d): 20.21%
Tumor inhibition rate (row head: Anti-bacterial rate) (CT26 tumor cells; [2]): 13.89%
Tumor weight (CT26 tumor cells; high-dose apatinib 180 mg/kg/d): 3.49 ± 0.86 g
Tumor weight (CT26 tumor cells; low-dose apatinib 60 mg/kg/d): 3.55 ± 0.61 g
Tumor weight (CT26 tumor cells; [2]): 3.84 ± 0.69 g
Cure rate (CT26 tumor cells; high-dose apatinib 180 mg/kg/d): 0%
Cure rate (CT26 tumor cells; low-dose apatinib 60 mg/kg/d): 0%
Cure rate (CT26 tumor cells; [2]): 0%
Net body weight ([1]; high-dose apatinib 180 mg/kg/d): 18.44 ± 1.42 g
Net body weight ([1]; low-dose apatinib 60 mg/kg/d): 18.32 ± 1.12 g
Net body weight [1, 2]: 18.02 ± 1.61 g
